Results: patent US20120178782A1, “COMPOSITIONS AND METHODS FOR TREATING PROLIFERATIVE DISEASES” (priority 2009, published 2012)
≈ marks a conversion by molar mass, not a printed value.

Key:
MDA-MB-231 = experiment: MTT cell proliferation assay, breast cancer cell line MDA-MB-231; format: cell-based, human; conditions: single inhibitor, 72 hours culture; for minimum inhibitory concentration (cell proliferation): FIG. 1; for minimum proliferation inhibitory concentration: FIG. 1C, 1F
Excerpt: In the experiments described below, the cells used are human breast and colon cancer cell lines. The breast cancer cell lines were obtained from Lombarda Cancer Center, Georgetown University Medical Center. The breast cancer lines are cell lines called […] and Hs578T. These cells show a high rate of proliferation, absence of estrogen receptors, are capable of forming tumors in naked mice and show a highly aggressive phenotype. Both lines are used very frequently as breast cancer models. The colon cancer cell line is the cell line called SW620 that was originally isolated from the lymphatic nodules of a patient with colon adenocarcinoma.
The cells are cultivated in polystyrene culture bottles (Corning, Corning, N.Y.). Both cell lines are kept in culture in DMEM medium (Dulbeco's Modified Tagle Medium, obtained from Gibco, Invitrogen Corporation, NY. USA) and supplemented with 10% fetal bovine serum (FBS) (obtained from PAA, GmbH Laboratories, Pasching, Austria), and supplemented with 100 U/ml of penicillin and 10 μg/ml of streptomycin (Gibco, Invitrogen Corporation, NY, USA) in incubator 37° C. In humidified atmosphere of […]/5% CO2.
There were carried out curves of dose-cell proliferation inhibition response of the human breast cancer cell line MDA-MB-231, with the intent of objectively knowing the minimum concentrations that produce a proliferation inhibiting effect.
In all the cases, the cell proliferation measurement was carried out using the MTT techniques of incorporation of Bromodeoxyuridine (BrdUr) (5-bromine-2′-deoxyuridine of Elisa Roche Applied Science, Mannheim, Germany) and the violet crystal coloration technique.
The cells were cultivated in microplates (Orange Scientific) of 96 cavities in the amount of 4,000 cells per cavity in 200 ul of DMEM supplemented with FCS supplemented with 100 U/ml of penicillin and 10 ug/ml of streptomycin in incubator at 37° C. with atmosphere of […]/5% CO2. A the end of this period, the cells were cultivated for another 24 hours in culture medium in the absence of serum. At the end of this period, culture medium with scram in the absence (control) or presence of different inhibitors was added, in accordance with the following:
The cells were kept in culture for 72 hours. Then, thiazol blue bromide reagent was added (3-(4,5-dimethylthiazol-[…])-2,5-diphenyltetrazolium bromide). It was incubated for 180 minutes at 37° C. After this time, the culture medium was discarded and the formazan crystals formed were dissolved with 200 ul of dimethylsulfoxide. The microplates were agitated for 15 minutes to dilute the crystals of homogeneous form, and absorbance was determined at 620 nm in a plate reader, “Biotra II, plate reader,” of Amersham Biosciences Inc., Piscataway, N.J., USA.

COX-2 enzyme = target: T1, COX-2 enzyme (Homo sapiens, UniProt P35354); conditions: plasma concentrations; cited from earlier work
T1 sequence (P35354 18-604): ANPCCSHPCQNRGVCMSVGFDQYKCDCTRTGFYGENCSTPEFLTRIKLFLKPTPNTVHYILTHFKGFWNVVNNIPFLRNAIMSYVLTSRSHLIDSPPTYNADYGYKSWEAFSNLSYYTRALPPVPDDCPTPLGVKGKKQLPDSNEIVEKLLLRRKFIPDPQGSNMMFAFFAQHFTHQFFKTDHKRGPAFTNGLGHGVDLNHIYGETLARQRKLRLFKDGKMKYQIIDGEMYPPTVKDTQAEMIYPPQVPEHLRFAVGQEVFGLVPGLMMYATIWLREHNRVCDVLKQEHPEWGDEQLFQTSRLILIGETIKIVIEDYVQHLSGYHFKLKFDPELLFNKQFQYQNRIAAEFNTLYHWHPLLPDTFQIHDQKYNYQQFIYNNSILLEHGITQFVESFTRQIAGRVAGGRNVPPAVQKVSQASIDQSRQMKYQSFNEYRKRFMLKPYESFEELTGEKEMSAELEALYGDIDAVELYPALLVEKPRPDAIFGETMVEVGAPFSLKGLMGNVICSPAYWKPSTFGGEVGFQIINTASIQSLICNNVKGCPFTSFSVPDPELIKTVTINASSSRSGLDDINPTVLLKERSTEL

[1] = tested on: cells of the microvascular endothelium; conditions: per se inhibitory doses of 75 μM; Kakiuchi-Kiyota et al. 2009; cited from earlier work
cell growth = conditions: Min Yao et al. 2005; cited from earlier work

Compound	minimum inhibitory concentration (cell proliferation) (MDA-MB-231) [µM]	further results
CC(c1cc2ccccc2s1)N(O)C(N)=O (stereo not shown) [Zileuton]	500 (≈ 118 µg/mL)	–
Cc1ccc(-c2ncc(Cl)cc2-c2ccc(S(C)(=O)=O)cc2)cn1 [Etoricoxib]	–	minimum proliferation inhibitory concentration (MDA-MB-231): 1000 nM
CC(=O)Oc1ccccc1C(=O)O [aspirin, acetylsalicylic acid]	–	plasma concentration inhibiting COX-2 enzyme (COX-2 enzyme): greater than 0.5 mM
Cc1c(C)c2c(c(C)c1O)CCC(C)(COc1ccc(CC3SC(=O)NC3=O)cc1)O2 (stereo not shown) [Troglitazone]	75 (≈ 33.1 µg/mL)	toxic effects on endothelial cells [1]: toxic effects were described
CC1=C(C)C(=O)C(CCCCC#CCCCC#CCO)=C(C)C1=O [AA861, Docebenone]	10 (≈ 3.26 µg/mL)	–
COc1cc(C(=O)NS(=O)(=O)c2ccccc2C)ccc1Cc1cn(C)c2ccc(NC(=O)OC3CCCC3)cc12 [Zafirlukast]	–	minimum proliferation inhibitory concentration (MDA-MB-231): > 100 nM
CC(C)Cc1ccc(C(C)C(=O)O)cc1 (stereo not shown) [Ibuprofen]	500 (≈ 103 µg/mL)	dose for cell growth inhibition (cell growth): at least 500 μM
CN(CCOc1ccc(CC2SC(=O)NC2=O)cc1)c1ccccn1 (stereo not shown) [Rosiglitazone]	75 (≈ 26.8 µg/mL)	–
